Consider seven compounds from patent publication US10702572B2, “Methods and compounds to suppress viral genome release and packaging” (Carnegie Mellon University, priority 2015, dated 2020).

Data set [1] is described as follows: LD50 in rat. The settings on record: conversion in brackets.
The conditions of data set [2]: rat; cited from earlier work.
A short description of data set [3]: LD50 (species not stated). In kind it is in vivo. Conditions: conversion in brackets.
The conditions of data set [4]: cited from earlier work.
In data set [5] the test system is packaged viral DNA in the capsid. Conditions: low-salt buffer, Mg2+ removed by EDTA. An excerpt:
(§1) [formula] […] Single-Molecule Fluorescence Measurements of Phage Ejection Ensemble Kinetics.
Phage particles were imaged using a Nikon 2000E2 microscope with a spinning disk confocal scan head (Yokagawa Industries, Tokyo, Japan).

Data set [6] deals with phage λ. The data set can be described thus: Intracapsid DNA transition temperature by ITC and SAXS. Also noted: species or system bacteriophage λ. The settings on record: 78% WT DNA length phage λ, 20 mM EDTA added to 10 mM MgCl2 Tris-buffer.
From the text: WT bacteriophage λ cI857, with a genome length of 48.5 kb was produced by thermal induction of lysogenic E. coli strain AE1 derived from the 52773 strain. Two phage λ mutants with shorter genome lengths (78 and 94% of the WT DNA length) were produced using a similar procedure. The receptor was the LamB protein purified from pop 154, a strain of E. coli K12 in which the LamB gene has been transduced from Shigella sonnei 3070. Phage and LamB purification details are described in Evilevitch A., et al., Osmotic pressure inhibition of DNA ejection from phage. Proc. Natl. Acad. Sci. U.S.A. 2003; 100:9292-9295 and Ivanovska I., et al., Internal DNA pressure modifies stability of WT phage. Proc. Natl. Acad. Sci. U.S.A. 2007; 104:9603-9608.
All calorimetric measurements were performed using the MicroCal iTC200 system manufactured by GE Healthcare, Life Sciences. […] J. Mol. Biol. 2010; 395:1079-1087.
Small angle X-ray scattering (SAXS) measurements were carried out at the 12-ID B station at the Advanced Photon Source at Argonne National Laboratory. A 12-KeV X-ray beam was used to illuminate the sample with an overall scattering vector q range from 0.006 to 0.850 Å-1. A total of 120 μl of phage solution (˜5×1013 pfu/ml) was injected into a flow-through glass capillary and the solution was oscillated during the SAXS measurement with a flow rate of 10 μl/s. Forty scans with 1 s X-ray exposure time were collected and averaged for each sample. A buffer solution of the dialysis buffer for phage samples was measured using the same SAXS setup, which was further subtracted as the background. After the background subtraction, the scattered intensity I versus q was plotted and the DNA peak region was truncated from 0.18 Å-1 to 0.33 Å-1. This DNA diffraction peak was fitted with a Gaussian curve plus a linear background using function (1), where q0 is the peak center, w is the peak width, A0 is the peak area, k is the slope of the linear background and c is the offset.
as §1
ITC and SAXS assays were used to determine DNA transition temperatures for WT λ-DNA length phage in MgCl2 Tris-buffer with MgCl2 concentrations varied between 5 and 50 mM, see FIGS. 3A-3C. The intracapsid DNA transition occurs at temperature T*, corresponding to either a discontinuity in the linear dependence of ΔHej on temperature (FIG. 3A) or to an abrupt change in the linear decay of the DNA diffraction peak area versus temperature measured by SAXS (FIG. 3B). DNA transition temperatures as a function of Mg-concentration determined by both techniques are in good agreement with each other and are summarized in FIG. 3C. […] However, the inventors have previously shown that at DNA packing density in phage λ, the screening effect of Mg-ions will become progressively smaller with increasing Mg-concentration due to the counter-ion saturation (Evilevitch A., et al., Effects of salt concentrations and bending energy on the extent of ejection of phage genomes. Biophys. J. 2008; 94:1110-1120). Furthermore, if the Mg ion concentration continues to increase, the counterions are forced into regions on the helices that begin to increase the effective repulsions between packaged DNA strands. […]

The test system of data set [7] is cell membrane. The settings on record: not told; cited from earlier work.
Data set [8] has as its system HSV-1, HSV-2, VZV, HCMV. The data set can be described thus: Antiviral screening study of condensing compounds. In kind it is cell-based. Conditions: result in words. On the procedure:
PAMAM Dendrimer G0, branched polyethylenimine (bPEI), Arg5+, DAB-AM-4, and DAB-AM-8 were utilized as test compounds. These compounds are described above.
Monolayers of HFF cells were prepared in six-well plates and incubated at 37° C. for 2 d to allow the cells to reach confluency. Media was then aspirated from the wells and 0.2 ml of virus was added to each of three wells to yield 20-30 plaques in each well. The virus was allowed to adsorb to the cells for 1 h and the plates were agitated every 15 minutes. Compounds were diluted in assay media consisting of MEM with Earl's salts supplemented with 2% FBS, L-glutamine, penicillin, and gentamycin. Solutions ranging from 300 μM to 0.1 μM were added to duplicate wells and the plates were incubated for various times, depending on the virus used. For HSV-1 and -2, the monolayers were then stained with 1% crystal violet in 20% methanol and the unbound dye removed by washing with dH2O. For all other assays, the cell monolayer was stained with 1% Neutral Red solution for 4 h then the stain was aspirated and the cells were washed with PBS. For all assays, plaques were enumerated using a stereomicroscope and the concentration of compound that reduced plaque formation by 50% (EC50) was interpolated from the experimental data.

Read-outs that look alike come from different tables or passages of the source. Where no end group is shown, it is not given here.

For orientation: LD50 means the dose expected to kill half of the subjects tested. Regarding `CCCCCCCCCCCCCCCC[N+](C)(C)C.[Br-]` [CTAB, hexadecyltrimethylammonium bromide], in data set [1], the LD50 as concentration was roughly 1.1 mM. For the same compound, the LD50 in data set [2] was 410 mg/kg.
In data set [3], `O=C(O)[C@@H](S)[C@@H](S)C(=O)O` [DMSA, meso-2,3-Dimercaptosuccinic acid] yielded an LD50 as concentration of roughly 27.5 mM. In addition, in data set [4] (species and route not given), the LD50 is on record as 5011 mg/kg.
`CCCCCCCCCCCC[N+](C)(C)C.[Br-]` [DTAB, dodecyltrimethylammonium bromide] showed an LD50 as concentration in data set [1] of 0.6 to 3.2 mM. Besides, the LD50 in data set [2] was 200 to 1000 mg/kg.
On to `O=C(O)CN(CCN(CC(=O)O)CC(=O)O)CC(=O)O` [EDTA, Ethylenediaminetetraacetic acid], for which, in data set [5], the “DNA ejection from the capsid” value is “essentially stalled” and the infection entry is reported as “no infection is observed”. For the same compound, the “DNA transition temperature T*” value in data set [6] was roughly 36 °C.
In data set [3], `O=C(O)CN(CCOCCOCCN(CC(=O)O)CC(=O)O)CC(=O)O` [EGTA, Ethylene glycol-bis(2-aminoethylether)-N,N,N′,N′-tetraacetic acid] came in with an LD50 as concentration of roughly 9.5 mM. The LD50 in data set [4] (in vivo) was 3587 mg/kg.
For `CCCCCCCCCCCCCC[N+](C)(C)C.[Br-]` [TTAB, myristyltrimethylammonium bromide], the LD50 as concentration in data set [1] is on record as roughly 11.6 mM. Further, the LD50 in data set [2] is reported as 3900 mg/kg.
On to RRRRR [Arg5+], for which the “permeation of the cell membrane” value in data set [7] was “permeate the cell membrane”. In data set [8], the “antiviral activity in the screening study” value is given as “showed antiviral activity”.
